{"source": "paper PMC11413853", "about": "“Discovery of VU6007496: Challenges in the Development of an M1 Positive Allosteric Modulator Backup Candidate” (ACS Chemical Neuroscience, 2024)", "key": {"[1]": {"test_system": "Phorbol Ester", "assay": "Eurofins radioligand binding", "parameters": "species or system Mouse", "settings": "specific binding"}, "[2]": {"test_system": "Opiate δ1 (OP1, DOP)", "assay": "Eurofins radioligand binding", "parameters": "species or system Human", "settings": "specific binding"}, "[3]": {"test_system": "Endothelin ETA", "assay": "Eurofins radioligand binding", "parameters": "species or system Human", "settings": "specific binding"}, "[4]": {"test_system": "Androgen (Testosterone)", "assay": "Eurofins radioligand binding", "parameters": "species or system Human", "settings": "specific binding"}, "[5]": {"test_system": "Adenosine A2A", "assay": "Eurofins radioligand binding", "parameters": "species or system Human", "settings": "specific binding"}, "[6]": {"test_system": "Bradykinin B1", "assay": "Eurofins radioligand binding", "parameters": "species or system Human", "settings": "specific binding"}, "[7]": {"test_system": "Estrogen ERα", "assay": "Eurofins radioligand binding", "parameters": "species or system Human", "settings": "specific binding"}, "[8]": {"test_system": "Neuropeptide Y Y2", "assay": "Eurofins radioligand binding", "parameters": "species or system Human", "settings": "specific binding"}, "[9]": {"assay": "MET ID in rat liver S9", "format": "in vitro ADME", "settings": "based on MS peak areas", "excerpt": "Eight oxidative metabolites were identified, with the major metabolite in both rat and human being Metabolite A (VU6036463, 24), the result of oxidative N-demethylation of the southern pyrazole (Scheme 4). The majority of other oxidative metabolism occurred on the tetrahydropyran moiety and included ring opening, but there was no amide hydrolysis observed.[21]"}, "[10]": {"test_system": "Histamine H2", "assay": "Eurofins radioligand binding", "parameters": "species or system Human", "settings": "specific binding"}, "[11]": {"test_system": "CYP3A4", "assay": "CYP induction (mRNA) in cryopreserved human hepatocytes, CYP3A4", "format": "in vitro ADME", "settings": "three donors", "excerpt": "(§1) To advance 11 as a candidate and into IND-enabling studies, we next needed to better understand its CYP profile to minimize drug–drug interactions in the clinic. […] We were pleased to see the contribution of another CYP beyond 3A4 for the metabolism of 11.[21] In parallel, we investigated the ability of PAM 11 to induce the expression of CYP450s (measuring mRNA) in cryopreserved human hepatocytes from three separate donors."}, "[12]": {"test_system": "Prostanoid EP4", "assay": "Eurofins radioligand binding", "parameters": "species or system Human", "settings": "specific binding"}, "[13]": {"test_system": "Opiate κ (OP2, KOP)", "assay": "Eurofins radioligand binding", "parameters": "species or system Human", "settings": "specific binding"}, "[14]": {"assay": "Hepatocyte MET ID, mouse", "format": "in vitro ADME", "excerpt": "We typically would not examine mouse hepatocyte MET ID, as mouse was not a safety species for the IND-enabling toxicology package, but with the unusual metabolism profile for human, and the lack of predictive cholinergic tox in the mouse phenotypic assay, we felt this was worthy of exploration. […] Clearly, based on the hepatocyte data, there is a tremendous difference in the concentration of parent 11 and metabolite composition, which sheds light on the mouse-rat disconnect for observed cholinergic toxicity in rat versus the more cholinergic sensitive mouse."}, "[15]": {"test_system": "Transporter, Norepinephrine (NET)", "assay": "Eurofins radioligand binding", "parameters": "species or system Human", "settings": "specific binding"}, "[16]": {"test_system": "Imidazoline I2, Central", "assay": "Eurofins radioligand binding", "parameters": "species or system Rat", "settings": "specific binding"}, "[17]": {"test_system": "Serotonin (5-HT2B)", "assay": "Eurofins radioligand binding", "parameters": "species or system Human", "settings": "specific binding"}, "[18]": {"test_system": "Purinergic P2Y, Non-Selective", "assay": "Eurofins radioligand binding", "parameters": "species or system Rat", "settings": "specific binding"}, "[19]": {"test_system": "Glutamate, NMDA, Phencyclidine", "assay": "Eurofins radioligand binding", "parameters": "species or system Rat", "settings": "specific binding"}, "[20]": {"test_system": "Rolipram", "assay": "Eurofins radioligand binding", "parameters": "species or system Rat", "settings": "specific binding"}, "[21]": {"test_system": "Sigma σ1", "assay": "Eurofins radioligand binding", "parameters": "species or system Human", "settings": "specific binding"}, "[22]": {"test_system": "Muscarinic M2", "assay": "Eurofins radioligand binding", "parameters": "species or system Human", "settings": "specific binding"}, "[23]": {"test_system": "Glutamate, NMDA, Agonism", "assay": "Eurofins radioligand binding", "parameters": "species or system Rat", "settings": "specific binding"}, "[24]": {"test_system": "CYP2B6", "assay": "CYP induction (mRNA) in cryopreserved human hepatocytes, CYP2B6", "format": "in vitro ADME", "settings": "three donors", "excerpt": "as §1"}, "[25]": {"test_system": "Serotonin (5-HT3)", "assay": "Eurofins radioligand binding", "parameters": "species or system Human", "settings": "specific binding"}, "[26]": {"test_system": "rats", "assay": "Novel object recognition (NOR) test", "format": "in vivo, rat", "protocol": "Novel Object Recognition Task\nRats were habituated for 10 min for 2 consecutive days in an empty novel object recognition (NOR) arena consisting of dark-colored plexiglass box (40 × 64 × 33 cm3). On day 3, rats were administered vehicle (0.5% natrasol/0.015% Tween80) or M1 PAM (0.1-3 mg/kg, p.o.., 10 mL/kg, n = 15-18) and returned to their home cage for 30 min. Rats were then placed in the NOR arena containing two identical objects for 10 min. Following the exposure period, rats were placed back into their home cages for 24 h. The rats were then returned to the arena in which one of the previously exposed (familiar) objects was replaced by a novel object and were video recorded for 5 min while they explored the two objects. Time spent exploring each object was scored by an observer blinded to the experimental conditions and the recognition index was calculated as [(time spent exploring novel object) – (time spent exploring familiar object)]/total time exploring objects.\nSupplemental field electrophysiology methods\nRecording pipettes were constructed from thin-walled borosilicate capillary glass tubing (I.D.=1.17 mm, O.D. 1.50 mm; Warner Instruments, Hamden, CT), pulled with a horizontal pipette puller (P-97 Sutter Instrument Co., Novata, CA) to a resistance of 1-3MΩ when filled with ACSF. […]"}, "[27]": {"test_system": "Cannabinoid CB1", "assay": "Eurofins radioligand binding", "parameters": "species or system Human", "settings": "specific binding"}}}
{"smiles": "Cn1ccc(-c2ccc(Cc3cc(C(=O)NC4CCOCC4)nc4ccn(C)c34)cc2)n1", "note": "[compound 11]", "values": [{"measurement": "% Inhibition at 10 µM", "setting": "[1]", "value": -1, "unit": "%"}, {"measurement": "% Inhibition at 10 µM", "setting": "[2]", "value": 5, "unit": "%"}, {"measurement": "% Inhibition at 10 µM", "setting": "[3]", "value": 3, "unit": "%"}, {"measurement": "% Inhibition at 10 µM", "setting": "[4]", "value": -24, "unit": "%"}, {"measurement": "% Inhibition at 10 µM", "setting": "[5]", "value": -11, "unit": "%"}, {"measurement": "% Inhibition at 10 µM", "setting": "[6]", "value": 21, "unit": "%"}, {"measurement": "% Inhibition at 10 µM", "setting": "[7]", "value": 5, "unit": "%"}, {"measurement": "% Inhibition at 10 µM", "setting": "[8]", "value": 31, "unit": "%"}, {"measurement": "extent of metabolism, rat liver S9", "setting": "[9]", "value": 36.8, "unit": "%"}, {"measurement": "% Inhibition at 10 µM", "setting": "[10]", "value": 28, "unit": "%"}, {"measurement": "CYP3A4 induction (mRNA)", "setting": "[11]", "value": "~21", "unit": "fold"}, {"measurement": "% Inhibition at 10 µM", "setting": "[12]", "value": 16, "unit": "%"}, {"measurement": "% Inhibition at 10 µM", "setting": "[13]", "value": 32, "unit": "%"}, {"measurement": "extent of metabolism, mouse hepatocytes", "setting": "[14]", "value": 95.4, "unit": "%"}, {"measurement": "% Inhibition at 10 µM", "setting": "[15]", "value": 12, "unit": "%"}, {"measurement": "% Inhibition at 10 µM", "setting": "[16]", "value": -9, "unit": "%"}, {"measurement": "% Inhibition at 10 µM", "setting": "[17]", "value": 7, "unit": "%"}, {"measurement": "% Inhibition at 10 µM", "setting": "[18]", "value": -9, "unit": "%"}, {"measurement": "% Inhibition at 10 µM", "setting": "[19]", "value": 7, "unit": "%"}, {"measurement": "% Inhibition at 10 µM", "setting": "[20]", "value": 10, "unit": "%"}, {"measurement": "% Inhibition at 10 µM", "setting": "[21]", "value": -8, "unit": "%"}, {"measurement": "% Inhibition at 10 µM", "setting": "[22]", "value": 0, "unit": "%"}, {"measurement": "% Inhibition at 10 µM", "setting": "[23]", "value": 0, "unit": "%"}, {"measurement": "CYP2B6 induction (mRNA)", "setting": "[24]", "value": "~8", "unit": "fold"}, {"measurement": "% Inhibition at 10 µM", "setting": "[25]", "value": -3, "unit": "%"}, {"measurement": "effect on recognition memory (NOR)", "setting": "[26]; rats, 0.1, 0.3, 1, and 3 mg/kg p.o., 30 min pretreatment, assessed 24 h later", "value": "dose-dependently enhanced recognition memory"}, {"measurement": "minimum effective dose (MED) in novel object recognition", "setting": "[26]; rats, p.o.", "value": 3, "unit": "mg/kg"}, {"measurement": "% Inhibition at 10 µM", "setting": "[27]", "value": 5, "unit": "%"}]}
